The results in this text go back to patent US9452170B2, “Compounds and methods for inducing chondrogenesis” (The California Institute for Biomedical Research, priority 2013, dated 2016).

Test system in the first series: not listed separately
The series is described as follows: Quantitation of compounds in rat knee joint extract after intra-articular injection (LC-MS/MS). It counts as in vivo. The settings on record: knee joint extract (whole joint, acetonitrile extract), other: intra-articular injection, 30 μL of 100 μM solution, T = 0 h, 30 μL of 100 μM intra-articular, read-out: Concentration observed in extract. Here is the method:
LC-MS/MS analysis for Chondrogenesis compounds were performed using an API 3000 equipped with an Agilent 1100 HPLC and a Leap Technologies autosampler. A HPLC Phenomenex 5 micron, 100 A Luna C18 (2) analytical column with dimensions of 2.0×50 mm (Part No. 00B-4252-B0) at a temperature of 30 C, flow rate of 0.6 mL/min, injection volume of 10 uL, and a 6.0 min run time was used. Mobile phase A1 was 0.1% formic acid in water and Mobile phase B1 was 0.1% formic acid in acetonitrile. The gradient was 90% A1/10% B1 at time 0; 90% A1/10% B1 at time 1.0 min; 10% A1/90% B1 at time 2.0 min; 10% A1/90% B1 at time 4.0 min; 90% A1/10% B1 at time 4.10 min; 90% A1/10% B1 at time 6.0 min. Analytes and internal standard quantitation were performed using Multiple Reaction Monitoring (MRM) quantitation method. Listed below are specific methods used to dose and measure exposure in plasma and the observed concentration in joint extract.
Calibration standard curve was prepared by serial dilution of a concentrated, spike solution of the compound in internal standard diluents. Internal standard diluent was prepared by dissolving the internal standard compound at a certain concentration in acetonitrile. Rat knee joint samples for each time points were individually crushed and transferred into each centrifuge tube and added 1.0-mL of internal standard diluent. Each centrifuge tube was vortexed and centrifuged for 30 minutes. From each tube, supernatant was removed and injected onto the column for analysis. In addition, plasma samples were obtained by retro-orbital bleeds into heparin coated tubes and stored at −80 C and later processed by analogy to the protocol described above for rat plasma samples.
30 μL of 100 μM compound solution (PBS with 0.1% DMSO) was injected into the intra-articular space of the right hinder knee of each animal. The animals were euthanized at indicated time points (0 hr, 0.5 hr, 1 hr, 2 hr, 4 hr and 6 hr). Four animals were used for each timepoint. The injected knee joints were harvested, flash freeze in liquid nitrogen. The whole joints were grounded into powder while frozen, mixed with 1 mL internal standard-containing acetonitrile, incubated at 4° C. overnight, vortexed and centrifuged for 30 min. The supernatant from each sample was analyzed using LC-MS/MS. Data shown in Table 2 indicates the observed concentration in knee extract. ND=Not determined.
As to `O=C(Nc1ccccc1S(=O)(=O)N1CCOCC1)c1ccc(F)cc1` [Compound 123], the concentration at 0 h was 4430 ng/mL.

Still in this series, the particulars now being: knee joint extract (whole joint, acetonitrile extract), other: intra-articular injection, 30 μL of 100 μM solution, T = 0.5 h, 30 μL of 100 μM intra-articular, read-out: Concentration observed in extract.
Turning to `O=C(Nc1ccccc1S(=O)(=O)N1CCOCC1)c1ccc(F)cc1` [Compound 123], the concentration at 0.5 h worked out at 1100 ng/mL.

Staying with this series, now noted: knee joint extract (whole joint, acetonitrile extract), other: intra-articular injection, 30 μL of 100 μM solution, T = 1 h, 30 μL of 100 μM intra-articular, read-out: Concentration observed in extract.
Consider `O=C(Nc1ccccc1S(=O)(=O)N1CCOCC1)c1ccc(F)cc1` [Compound 123], for which the concentration at 1 h was 741 ng/mL.

Still in this series, the particulars now being: knee joint extract (whole joint, acetonitrile extract), other: intra-articular injection, 30 μL of 100 μM solution, T = 2 h, 30 μL of 100 μM intra-articular, read-out: Concentration observed in extract.
For the molecule `O=C(Nc1ccccc1S(=O)(=O)N1CCOCC1)c1ccc(F)cc1` [Compound 123], the concentration at 2 h stood at 338 ng/mL.

The same series, now with this note: knee joint extract (whole joint, acetonitrile extract), other: intra-articular injection, 30 μL of 100 μM solution, T = 4 h, 30 μL of 100 μM intra-articular, read-out: Concentration observed in extract.
In the case of `O=C(Nc1ccccc1S(=O)(=O)N1CCOCC1)c1ccc(F)cc1` [Compound 123], the concentration at 4 h was determined as 38 ng/mL.

Staying with this series, now noted: knee joint extract (whole joint, acetonitrile extract), other: intra-articular injection, 30 μL of 100 μM solution, T = 6 h, 30 μL of 100 μM intra-articular, read-out: Concentration observed in extract.
Turning to `O=C(Nc1ccccc1S(=O)(=O)N1CCOCC1)c1ccc(F)cc1` [Compound 123], the concentration at 6 h is 0 ng/mL.

A further series deals with Human MSCs. The series is described as follows: Human chondrocyte differentiation assay (immunostaining for type II collagen, Sox9 and COMP). It counts as cell-based. The settings on record: 168 h, compound 1 μM, 7 days, vs DMSO vehicle, read-out: Biological Activity (increase in staining intensity compared to vehicle control). Here is the method:
Human MSCs (50,000) were plated into each well of a 96-well plate and cultured overnight. Compounds (in DMSO solution) were added to the cells at a final concentration of 1 μM, and the cells were cultured for 7 days at 5% CO2, 37° C. The cells were fixed with 10% formalin solution at room temperature for 10 min, and immunostained using antibodies specific for type II collagen (Abcam), Sox9 (Santa Cruz) and cartilage oligomeric matrix protein (COMP, Santa Cruz), and fluorescently labeled secondary antibodies (Li-Cor). The total intensity of the staining was measured using Oddyssey CLx imaging system (Li-Cor). Vehicle (DMSO) was used as control to determine the basal level of chondrocyte differentiation. […] Representative data are shown in Table 1 [A: >50% increase in staining intensity compared to vehicle control; B: 30-50% increase in staining intensity compared to vehicle control].
With `O=C(Nc1ccccc1S(=O)(=O)N1CCOCC1)c1ccc(F)cc1` [Compound 123], the activation at 1 µM is over 50%.
Still for that read-out and setting: as for `O=C(O)c1ccccc1C(=O)Nc1ccc(-c2ncc[nH]2)cc1` [Compound 74], the figure is 30 to 50%; as for `O=C(O)c1ccc(Cl)cc1C(=O)Nc1ccc(CCCO)cc1` [Compound 187], 30 to 50%; as for `CC(=O)c1ccccc1NC(=O)Nc1ccccc1C(=O)O` [Compound 205], 30 to 50%.
The same measure, in the same setting: as for `COC(=O)c1ccccc1NC(=O)Nc1ccc(C(C)=O)cc1` [Compound 206], the figure is 30 to 50%; as for `CC(=O)Cc1ccc(CNC(=O)c2ccccc2C(=O)O)cc1` [Compound 166], 30 to 50%; as for `O=C(O)c1ccc(F)cc1C(=O)Nc1ccc(CCCO)cc1` [Compound 183], 30 to 50%.
On the same count and under the same terms, as for `COc1cccc(C(=O)O)c1C(=O)NCc1ccc(C(=O)O)cc1` [Compound 104], the figure is over 50%; as for `CC(=O)c1cccc(C(=O)Nc2ccccc2S(=O)(=O)N2CCOCC2)c1` [Compound 122], over 50%.
For the molecule `N#Cc1ccc(F)c(NC(=O)c2ccccc2C(=O)O)c1` [Compound 34], the activation at 1 µM fell in the range of 30 to 50%.
On the same count and under the same terms, under `COc1cc(CNC(=O)c2ccccc2C(=O)O)ccc1C(=O)O` [Compound 154] stands 30 to 50%; under `CN(c1ccccc1C(=O)Nc1ccc(C#N)cc1)S(C)(=O)=O` [Compound 78], 30 to 50%; under `O=C(O)c1ccc(CNC(=O)c2c(F)cccc2C(=O)O)cc1` [Compound 94], 30 to 50%.
The same measure, in the same setting: under `CC(=O)c1cccc(NC(=O)Nc2ccccc2C(=O)O)c1` [Compound 204] stands 30 to 50%; under `NC(=O)Cc1ccc(NC(=O)c2ccccc2C(=O)O)cc1` [Compound 51], 30 to 50%; under `Cc1cc(NC(=O)c2ccccc2C(=O)O)n[nH]1` [Compound 82], over 50%.
On the same count and under the same terms, as for `NC(=O)c1ccc(CNC(=O)c2ccccc2C(=O)O)cc1` [Compound 172], the figure is 30 to 50%.
`O=C(O)c1ccccc1NC(=O)c1ccccc1C(=O)O` [Compound 55]: the activation at 1 µM was over 50%.
For `CS(=O)(=O)Nc1ccccc1C(=O)NCc1ccc(C(=O)O)cc1` [Compound 120], the activation at 1 µM fell in the range of 30 to 50%.
On the same count and under the same terms, under `N#Cc1ccccc1NC(=O)c1ccccc1C(=O)O` [Compound 70] stands over 50%.
Regarding `O=C(O)c1cc(Cl)ccc1C(=O)Nc1ccc(CCCO)cc1` [Compound 184], the activation at 1 µM was 30 to 50%.
Same read-out and setting: as for `NCc1cccc(NC(=O)c2ccccc2C(=O)O)c1` [Compound 71], the figure is over 50%; as for `COc1ccc(C(=O)NCc2ccc(C(=O)O)cc2)c(C(=O)O)c1` [Compound 106], 30 to 50%; as for `COCCS(=O)(=O)Nc1ccccc1C(=O)Nc1ccc(C#N)cc1` [Compound 79], 30 to 50%.
Still for that read-out and setting: under `COC(=O)c1ccccc1NC(=O)Nc1cccc(C#N)c1` [Compound 202] stands over 50%; under `O=C(Nc1ccc(CCCO)cc1)c1cccc(Cl)c1C(=O)O` [Compound 185], 30 to 50%; under `COc1ccc(C#N)cc1NC(=O)c1ccccc1C(=O)O` [Compound 6], over 50%.
On the same count and under the same terms, as for `N#Cc1ccc(NC(=O)c2ccccc2-c2ccc(C(=O)O)cc2)cc1` [Compound 60], the figure is over 50%.
For the molecule `N#Cc1ccc(Cl)c(NC(=O)c2ccccc2C(=O)O)c1` [Compound 1], the activation at 1 µM fell in the range of 30 to 50%.
On the same count and under the same terms, under `O=C(Nc1ccccc1S(=O)(=O)N1CCS(=O)(=O)CC1)c1ccc(F)cc1` [Compound 141] stands 30 to 50%; under `CNS(=O)(=O)c1ccc(N2CCCC2=O)cc1` [Compound 28], 30 to 50%; under `CC(CO)c1ccc(NC(=O)c2ccccc2C(=O)O)cc1` (stereo not shown) [Compound 84], over 50%.
Same read-out and setting: as for `COC(=O)c1ccccc1NC(=O)Nc1ccc2ccccc2c1` [Compound 201], the figure is 30 to 50%; as for `N#Cc1cc(Cl)ccc1NC(=O)c1ccccc1C(=O)O` [Compound 8], 30 to 50%.
On the same count and under the same terms, under `N#Cc1ccc(NC(=O)c2ccccc2-c2ccccc2C(=O)O)cc1` [Compound 61] stands over 50%.
With `O=C(O)c1cc(F)ccc1C(=O)Nc1ccc(CCCO)cc1` [Compound 180], the activation at 1 µM lay within 30 to 50%.
Still for that read-out and setting: under `Cc1cccc(C(=O)O)c1C(=O)Nc1ccc(CCCO)cc1` [Compound 190] stands over 50%; under `CS(=O)(=O)Nc1ccccc1C(=O)Nc1ccc(CC#N)cc1` [Compound 45], 30 to 50%; under `O=C(O)c1cccc(Cl)c1C(=O)Nc1ccc(CCCO)cc1` [Compound 186], 30 to 50%.
The same measure, in the same setting: under `O=C(Nc1ccccc1S(=O)(=O)N1CCOCC1)c1ccccc1F` [Compound 118] stands 30 to 50%; under `CC(=O)c1cc(NC(=O)c2ccccc2C(=O)O)ccc1F` [Compound 31], 30 to 50%; under `CCCS(=O)(=O)Nc1ccccc1C(=O)Nc1ccc(CCOC)cc1` [Compound 159], 30 to 50%.
For the molecule `O=C(O)c1ccccc1C(=O)Nc1ccccc1OC(F)(F)F` [Compound 17], the activation at 1 µM is 30 to 50%.
Same read-out and setting: as for `COC(=O)c1ccccc1NC(=O)Nc1ccc(C)cc1` [Compound 198], the figure is 30 to 50%; as for `N#Cc1ccc(C(=O)Nc2cnccc2C(=O)O)cc1` [Compound 54], 30 to 50%.
On the same count and under the same terms, under `CN(C)S(=O)(=O)c1ccccc1NC(=O)c1ccc(C#N)cc1` [Compound 56] stands over 50%; under `N#Cc1cc(CNC(=O)c2ccccc2C(=O)O)ccc1C(=O)O` [Compound 155], over 50%; under `C/C(=N\O)c1cccc(NC(=O)c2ccccc2C(=O)O)c1` [Compound 58], 30 to 50%.
The same measure, in the same setting: as for `O=C(Nc1ccccc1S(=O)(=O)N1CCOCC1)c1ccc(-c2ccccc2)cc1` [Compound 133], the figure is 30 to 50%; as for `O=C(O)Cc1ccccc1C(=O)Nc1ccc(CCO)cc1` [Compound 47], 30 to 50%; as for `COC(=O)c1ccccc1NC(=O)Nc1ccccc1` [Compound 200], 30 to 50%.
Consider `O=C(O)c1ccccc1C(=O)Nc1ccc(OCCO)cc1` [Compound 105], for which the activation at 1 µM was in the range of 30 to 50%.
Regarding `O=C(CC1OC(=O)c2ccccc21)c1ccccc1Cl` (stereo not shown) [Compound 41], the activation at 1 µM is over 50%.
Same read-out and setting: under `O=C(Nc1ccccc1S(=O)(=O)N1CCOCC1)c1cccc(F)c1` [Compound 110] stands 30 to 50%; under `CS(=O)(=O)c1cccc(NC(=O)c2ccccc2C(=O)O)c1` [Compound 38], 30 to 50%.
